pIC50: −log10 of the molar value.
Target: T1, GRP receptor (Rattus norvegicus, UniProt P52500)
T1 construct: endogenous in cells; host or cells: rat AR42J pancreatic acinar cells (membrane preparation)
Assay: Assay on binding to GRP receptor ([125I-Tyr4]bombesin displacement, AR42J cell membranes)
Conditions: for pIC50: rat AR42J cell membranes, [125I-Tyr4]bombesin, 30 min, 4° C., read-out: IC50, affinity binding for the GRP receptors; for increase in the affinity for the GRP receptor compared with litorin or Leu-litorin: ratio of IC50 values versus litorin / Leu-litorin
Description: Rat AR42J pancreatic acinar cells were cultured in Dulbecco's modified Eagle's medium without antibiotics and supplemented with 10% (vol/vol) fetal calf serum. The incubation atmosphere consisted of 10% C)2 -90% humidified air at 37° C.
Membranes for the bombesin receptor binding assay were obtained by homogenizing AR42J cells (Polytron, setting 6, 15 sec) in ice-cold 50 mM Tris-HCl (Buffer A) and centrifuging twice at 39,000× g (10 min), with an intermediate resuspension in fresh buffer. The final pellets were resuspended in 50 mM Tris-HCl, containing 0.1 mg/ml bacitracin, and 0.1% BSA (Buffer B), and held on ice for the receptor binding assay.
For assay, aliquots (0.4 ml) were incubated with 0.05 ml [^125 I-Tyr^4 ] bombesin (~2200 Ci/mmol, New England Nuclear) and Buffer B, with and without 0.05 ml of unlabeled competing analogs. After a 30 min incubation (4° C.), the bound [^125 I-Tyr^4 ] bombesin was separated from the free by rapid filtration through GF/B filters which had been previously soaked in 0.1% polyethyleneimine. The filters were then washed three times with 5 ml aliquots of ice-cold Buffer A. Specific binding was defined as the total [^125 I-Tyr^4 ] bombesin bound minus that bound in the presence of 1 μM unlabeled bombesin.

T1 sequence (P52500 whole entry): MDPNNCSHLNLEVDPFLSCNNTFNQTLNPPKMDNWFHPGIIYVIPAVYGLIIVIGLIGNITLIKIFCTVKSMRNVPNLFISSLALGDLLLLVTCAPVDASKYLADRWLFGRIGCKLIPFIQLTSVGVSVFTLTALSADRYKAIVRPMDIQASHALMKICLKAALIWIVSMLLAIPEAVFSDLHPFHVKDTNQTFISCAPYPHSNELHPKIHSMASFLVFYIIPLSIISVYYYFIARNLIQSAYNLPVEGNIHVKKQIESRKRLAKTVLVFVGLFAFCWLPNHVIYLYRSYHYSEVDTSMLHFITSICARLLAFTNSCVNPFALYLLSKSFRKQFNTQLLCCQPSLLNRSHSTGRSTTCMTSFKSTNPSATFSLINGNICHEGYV

| Compound | pIC50 | increase in the affinity for the GRP receptor compared with litorin or Leu-litorin |
| --- | --- | --- |
| CCCC[C@H](NC(=O)[C@H](Cc1ccccc1)NC(=O)[C@H](Cc1c[nH]cn1)NC(=O)CNC(=O)[C@@H](NC(=O)[C@H](C)NC(=O)[C@H](Cc1c[nH]c2ccccc12)NC(=O)[C@H](CCC(N)=O)NC(=O)[C@H](N)Cc1ccc(O)cc1)C(C)C)C(N)=O [BIM-26270, H--D-Tyr--Gln--Trp--Ala--Val--Gly--His--Phe--Nle--NH2] | 10.00 | 24 to 230 times |
| CSCC[C@H](NC(=O)[C@H](Cc1ccccc1)NC(=O)[C@H](Cc1c[nH]cn1)NC(=O)CNC(=O)[C@@H](NC(=O)[C@H](C)NC(=O)[C@H](Cc1c[nH]c2ccccc12)NC(=O)[C@H](CCC(N)=O)NC(=O)[C@H](N)Cc1ccc(O)cc1)C(C)C)C(N)=O [BIM-26271, H--D-Tyr--Gln--Trp--Ala--Val--Gly--His--Phe--Met--NH2] | 9.30 | 5- to 15 times |
| CSCC[C@H](NC(=O)[C@H](CC(C)C)NC(=O)[C@H](Cc1c[nH]cn1)NC(=O)CNC(=O)[C@@H](NC(=O)[C@H](C)NC(=O)[C@H](Cc1c[nH]c2ccccc12)NC(=O)[C@H](CCC(N)=O)NC(=O)[C@H](N)Cc1ccc(O)cc1)C(C)C)C(N)=O [BIM-26274, H--D-Tyr--Gln--Trp--Ala--Val--Gly--His--Leu--Met--NH2] | 9.52 | – |
| CC(C)C[C@H](NC(=O)[C@H](CC(C)C)NC(=O)[C@H](Cc1c[nH]cn1)NC(=O)CNC(=O)[C@@H](NC(=O)[C@H](C)NC(=O)[C@H](Cc1c[nH]c2ccccc12)NC(=O)[C@H](CCC(N)=O)NC(=O)[C@H](N)Cc1ccc(O)cc1)C(C)C)C(N)=O [BIM-26278, H--D-Tyr--Gln--Trp--Ala--Val--Gly--His--Leu--Leu--NH2] | 8.82 | 5- to 15 times |
| CCCC[C@H](NC(=O)[C@H](CC(C)C)NC(=O)[C@H](Cc1c[nH]cn1)NC(=O)CNC(=O)[C@@H](NC(=O)[C@H](C)NC(=O)[C@H](Cc1c[nH]c2ccccc12)NC(=O)[C@H](CCC(N)=O)NC(=O)[C@H](N)Cc1ccc(O)cc1)C(C)C)C(N)=O [BIM-26279, H--D-Tyr--Gln--Trp--Ala--Val--Gly--His--Leu--Nle--NH2] | 8.77 | – |
| CC(C)C[C@H](NC(=O)[C@H](Cc1ccccc1)NC(=O)[C@H](Cc1c[nH]cn1)NC(=O)CNC(=O)[C@@H](NC(=O)[C@H](C)NC(=O)[C@H](Cc1c[nH]c2ccccc12)NC(=O)[C@H](CCC(N)=O)NC(=O)[C@H](N)Cc1ccc(O)cc1)C(C)C)C(N)=O [BIM-26288, H--D-Tyr--Gln--Trp--Ala--Val--Gly--His--Phe--Leu--NH2] | 9.15 | – |
